Literature values, collected in patent US20240390871A1, “Production of encapsulated nanoparticles at high volume fractions” (iCeutica Pty Ltd., priority 2009, published 2024).

Details: previous animal studies; reducing the size of metaxalone

## Cc1cc(C)cc(OCC2CNC(=O)O2)c1 (stereo not shown) [metaxalone]
  rates of absorption and overall bioavailability (as measured by AUC): much higher rates of absorption and overall bioavailability
